From ChEMBL document CHEMBL1201862, “PubChem BioAssay data set” (2004)
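Briefly, cells in 96-well plates were exposed to five compound concentrations for 48 h, and endpoints were estimated by linear interpolation. GI50 is the concentration that inhibits growth by half.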 Calls of active or inactive are those of the source. Rule as the data show it: active = GI50 up to about 1.1 µM and inactive = higher.

Assays:
Assay in all cases: inhibition of tumour cell growth, NCI panel, 48 h
[1] = system: M14
[2] = system: SK-MEL-5
[3] = system: OVCAR-5
[4] = system: U-251
[5] = system: SF-295
[6] = system: A549
[7] = system: CCRF-CEM
[8] = system: SK-MEL-28
[9] = system: RXF 393
[10] = system: MDA-MB-435
[11] = system: NCI-H23
[12] = system: HOP-62
[13] = system: HT-29
[14] = system: UACC-62
[15] = system: SW-620
[16] = system: 786-0
[17] = system: SF-268
[18] = system: T47D
[19] = system: RPMI-8226

Measured: GI50

O=C(Nc1ccc(Cl)cc1)NS(=O)(=O)c1coc2cc(F)ccc2c1=O
inactive: [1] > 100 µM | [2] > 100 µM | [3] > 100 µM | [4] 62.2 µM | [5] > 100 µM | [6] > 100 µM | [7] 86.3 µM | [8] > 100 µM | [9] > 100 µM | [10] 30.6 µM | [11] > 100 µM | [12] > 100 µM | [13] > 100 µM | [14] 26.2 µM | [15] > 100 µM | [16] > 100 µM | [17] > 100 µM | [18] > 100 µM

COC(=O)c1ccc(/C=C2\Oc3cc(O)ccc3C2=O)cc1
inactive: [1] 83.8 µM | [2] 67 µM | [4] 48.8 µM | [5] 36.8 µM | [6] 77.3 µM | [7] 38.2 µM | [8] 72.8 µM | [9] 27.9 µM | [10] > 100 µM | [11] 42.3 µM | [12] > 100 µM | [14] > 100 µM | [15] 78.2 µM | [16] > 100 µM | [17] 66.1 µM | [19] 29.4 µM | [18] 54.3 µM

CC1=CC(O)CC(C)(C)C1/C=C/C(C)=C/C=C/C(C)=C/C=C/C=C(C)/C=C/C=C(C)/C=C/C1=C(C)CC(O)CC1(C)C (centres undefined)
inactive: [1] 13.8 µM | [2] 16.6 µM | [3] 34.8 µM | [5] 23.9 µM | [6] 35.6 µM | [7] 26.2 µM | [8] 17.5 µM | [9] 18.5 µM | [10] 17.5 µM | [11] 24.7 µM | [13] 14.9 µM | [14] 15 µM | [15] 19.1 µM | [16] 19.1 µM | [19] 28.2 µM | [18] 20 µM

COc1ccc(C2C3CCc4ccccc4C3=NN2S(=O)(=O)c2cccc(C(=O)O)c2OC)cc1 (centres undefined)
inactive: [1] 15.8 µM | [2] 6.62 µM | [3] 92.9 µM | [4] 7.21 µM | [5] 9.23 µM | [6] 10.1 µM | [7] 10.4 µM | [9] 13.1 µM | [10] 1.79 µM | [11] 52.4 µM | [12] 21 µM | [13] 5 µM | [14] 6.14 µM | [15] 6.98 µM | [16] 11.2 µM | [17] 14 µM | [19] 9.55 µM | [18] 4.83 µM
